In patent US11590139B2, “Substituted aminopurine compounds, compositions thereof, and methods of treatment therewith” (Signal Pharmaceuticals, LLC, priority 2014, dated 2023) one finds IC50 data, which are given here for 26 compounds.

The first test concerns Lox-IMVI melanoma cell line. Nature of the test: Lox-IMVI anti-proliferative assay (growth inhibition, Cell Titer-Glo). It is filed as cell-based, human. The settings on record: Homo sapiens; IC50 activity level in the cell-based Lox-IMVI anti-proliferative assay; read-out: Activity. The procedure, abridged:
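First, compound was dispensed as a 10-point 3-fold series (0.5 nM–10 μM, duplicate). Then cells in RPMI + 10% FBS were added and grown 72 h at 37 °C with 0.2% DMSO. Finally, ATP luminescence was read and IC50 calculated versus DMSO control.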
(In ATP-based viability assays light output follows the ATP content of the culture.)
As for `NC(=O)[C@H]1CC[C@@H](n2c(Nc3c(F)cc(Cl)cc3F)nc3cnc(NC4CCCC4)nc32)CC1` [Example 120, (1s,4s)-4-(8-(4-chloro-2,6-difluorophenylamino)-2-(cyclopentylamino)-9H-purin-9-yl)cyclohexanecarboxamide], the IC50 was in the range of 250 to 500 nM.
On the same count and under the same terms, the result for `NC(=O)[C@H]1CC[C@@H](n2c(Nc3c(F)cc(Cl)cc3F)nc3cnc(N[C@@H]4CCC[C@H]4O)nc32)CC1` [Example 257, (1S,4s)-4-(8-(4-chloro-2,6-difluorophenylamino)-2-((1R,2R)-2-hydroxycyclopentylamino)-9H-purin-9-yl)cyclohexanecarboxamide] reads 500 to 1000 nM; that for `CC[C@H](C)Nc1ncc2nc(Nc3c(F)cc(F)cc3Cl)n([C@H]3CC[C@@H](C(N)=O)CC3)c2n1` [Example 338, (1R,4s)-4-(2-(sec-butylamino)-8-(2-chloro-4,6-difluorophenylamino)-9H-purin-9-yl)cyclohexanecarboxamide], 500 to 1000 nM; that for `NC(=O)[C@H]1CC[C@@H](n2c(Nc3c(F)cc(F)cc3F)nc3cnc(N[C@@H]4CCOC[C@H]4F)nc32)CC1` [Example 276, (1S,4s)-4-(2-((3S,4R)-3-fluorotetrahydro-2H-pyran-4-ylamino)-8-(2,4,6-trifluorophenylamino)-9H-purin-9-yl)cyclohexanecarboxamide], under 250 nM.
Same read-out and setting: the result for `CC1(C)CC[C@@H](Nc2ncc3nc(Nc4c(Cl)cccc4Cl)n([C@H]4CC[C@@H](C(N)=O)CC4)c3n2)C[C@H]1O` [Example 383, (1S,4s)-4-(8-(2,6-dichlorophenylamino)-2-((1R,3R)-3-hydroxy-4,4-dimethylcyclohexylamino)-9H-purin-9-yl)cyclohexanecarboxamide] reads over 1000 nM.
On the same count and under the same terms, the result for `C[C@@H]1CC[C@@H](Nc2ncc3nc(Nc4c(F)cc(F)cc4F)n([C@H]4CC[C@@H](C(N)=O)CC4)c3n2)C[C@H]1O` [Example 341, (1S,4s)-4-(2-((1R,3R,4R)-3-hydroxy-4-methylcyclohexylamino)-8-(2,4,6-trifluorophenylamino)-9H-purin-9-yl)cyclohexanecarboxamide] reads over 1000 nM.
Regarding `NC(=O)[C@H]1CC[C@@H](n2c(Nc3cc(F)c(Cl)cc3F)nc3cnc(NC4CCOCC4)nc32)CC1` [Example 70, (1s,4s)-4-(8-(4-chloro-2,5-difluorophenylamino)-2-(tetrahydro-2H-pyran-4-ylamino)-9H-purin-9-yl)cyclohexanecarboxamide], the IC50 lay within 500 to 1000 nM.
Same read-out and setting: next, `NC(=O)[C@H]1CC[C@@H](n2c(Nc3c(Cl)cc(F)cc3Cl)nc3cnc(NC4CCC4)nc32)CC1` [Example 118, (1s,4s)-4-(2-(cyclobutylamino)-8-(2,6-dichloro-4-fluorophenylamino)-9H-purin-9-yl)cyclohexanecarboxamide]: 500 to 1000 nM.
Same read-out and setting: the result for `N#Cc1cc(Cl)c(Nc2nc3cnc(NC4CCOCC4)nc3n2[C@H]2CC[C@@H](C(N)=O)CC2)c(Cl)c1` [Example 278, (1s,4s)-4-(8-(2,6-dichloro-4-cyanophenylamino)-2-(tetrahydro-2H-pyran-4-ylamino)-9H-purin-9-yl)cyclohexanecarboxamide] reads under 250 nM; that for `CC1(C)CC[C@@H](Nc2ncc3nc(Nc4c(F)cc(F)cc4Cl)n([C@H]4CC[C@@H](C(N)=O)CC4)c3n2)C[C@H]1O` [Example 385, (1S,4s)-4-(8-(2-chloro-4,6-difluorophenylamino)-2-((1R,3R)-3-hydroxy-4,4-dimethylcyclohexylamino)-9H-purin-9-yl)cyclohexanecarboxamide], over 1000 nM.

The test is the same for the next values; noted with them: Homo sapiens; Lox-IMVI anti-proliferative assay, IC50 activity level; read-out: Activity.
On to `C[C@]1(C(N)=O)CC[C@@H](n2c(Nc3c(Cl)cc(C(F)(F)F)cc3Cl)nc3cnc(NC4CC(F)(F)C4)nc32)CC1` [Example 584, (1s,4s)-4-(8-(2,6-dichloro-4-(trifluoromethyl)phenylamino)-2-(3,3-difluorocyclobutylamino)-9H-purin-9-yl)-1-methylcyclohexanecarboxamide], for which the IC50 is over 1000 nM.
Still for that read-out and setting: next, `C[C@]1(C(N)=O)CC[C@@H](n2c(Nc3c(F)cc(Cl)cc3F)nc3cnc(NC4CCCC4)nc32)CC1` [Example 559, (1s,4s)-4-(8-(4-chloro-2,6-difluorophenylamino)-2-(cyclopentylamino)-9H-purin-9-yl)-1-methylcyclohexanecarboxamide]: 250 to 500 nM; `C[C@]1(C(N)=O)CC[C@@H](n2c(Nc3c(Cl)cc(Cl)cc3Cl)nc3cnc(NC4CCOCC4)nc32)CC1` [Example 522, (1s,4s)-1-methyl-4-(2-(tetrahydro-2H-pyran-4-ylamino)-8-(2,4,6-trichlorophenylamino)-9H-purin-9-yl)cyclohexanecarboxamide]: under 250 nM; `NC(=O)[C@H]1CC[C@@H](n2c(Nc3c(F)cc(Cl)cc3F)nc3cnc(N[C@@H]4CCC[C@@H](O)C4)nc32)CC1` [Example 421, (1S,4s)-4-(8-(4-chloro-2,6-difluorophenylamino)-2-((1R,3R)-3-hydroxycyclohexylamino)-9H-purin-9-yl)cyclohexanecarboxamide]: over 1000 nM.
On the same count and under the same terms, the result for `C[C@]1(C(N)=O)CC[C@@H](n2c(Nc3c(F)cc(Cl)cc3F)nc3cnc(N[C@@H]4CCC[C@H](O)C4)nc32)CC1` [Example 566, (1S,4s)-4-(8-(4-chloro-2,6-difluorophenylamino)-2-((1R,3S)-3-hydroxycyclohexylamino)-9H-purin-9-yl)-1-methylcyclohexanecarboxamide] reads 250 to 500 nM.
The same measure, in the same setting: the result for `N#Cc1cc(Cl)c(Nc2nc3cnc(N[C@@H]4CCC[C@H](O)C4)nc3n2[C@H]2CC[C@@H](C(N)=O)CC2)c(Cl)c1` [Example 455, (1S,4s)-4-(8-(2,6-dichloro-4-cyanophenylamino)-2-((1R,3S)-3-hydroxycyclohexylamino)-9H-purin-9-yl)cyclohexanecarboxamide] reads under 250 nM; that for `C[C@]1(C(N)=O)CC[C@@H](n2c(Nc3c(Cl)cc(Cl)cc3Cl)nc3cnc(N[C@@H]4CCC[C@H](O)C4)nc32)CC1` [Example 565, (1S,4s)-4-(2-((1R,3S)-3-hydroxycyclohexylamino)-8-(2,4,6-trichlorophenylamino)-9H-purin-9-yl)-1-methylcyclohexanecarboxamide], under 250 nM; that for `C[C@]1(C(N)=O)CC[C@@H](n2c(Nc3c(Cl)cc(F)cc3Cl)nc3cnc(NC4CC(F)(F)C4)nc32)CC1` [Example 582, (1s,4s)-4-(8-(2,6-dichloro-4-fluorophenylamino)-2-(3,3-difluorocyclobutylamino)-9H-purin-9-yl)-1-methylcyclohexanecarboxamide], under 250 nM.

Still in this test, the particulars now being: Homo sapiens; Lox-IMVI anti-proliferative assay, cell-based; read-out: Activity (IC50 activity level).
Take `C[C@]1(C(N)=O)CC[C@@H](n2c(Nc3c(Cl)cc(Cl)cc3Cl)nc3cnc(N[C@H]4CCOC[C@@H]4F)nc32)CC1` [Example 802, (1R,4s)-4-(2-(((3R,4S)-3-fluorotetrahydro-2H-pyran-4-yl)amino)-8-((2,4,6-trichlorophenyl)amino)-9H-purin-9-yl)-1-methylcyclohexane-1-carboxamide]: the IC50 was under 250 nM.

Still in this test, the particulars now being: Homo sapiens; Lox-IMVI melanoma cell line, anti-proliferative assay; read-out: Activity (IC50 activity level).
Consider `C[C@]1(C(N)=O)CC[C@@H](n2c(Nc3c(F)cc(Cl)cc3Cl)nc3cnc(N[C@H]4CCC[C@@H](O)C4)nc32)CC1` [Example 628, (1R,4s)-4-(8-(2,4-dichloro-6-fluorophenylamino)-2-((1S,3R)-3-hydroxycyclohexylamino)-9H-purin-9-yl)-1-methylcyclohexanecarboxamide], for which the IC50 was under 250 nM.
Still for that read-out and setting: the result for `CC(C)OC(=O)N1CCC[C@@H](Nc2ncc3nc(Nc4c(F)cc(F)cc4F)n([C@H]4CC[C@@H](C(N)=O)CC4)c3n2)C1` [Example 772, (R)-isopropyl 3-(9-((1s,4S)-4-carbamoylcyclohexyl)-8-(2,4,6-trifluorophenylamino)-9H-purin-2-ylamino)piperidine-1-carboxylate] reads over 1000 nM; that for `C[C@]1(C(N)=O)CC[C@@H](n2c(Nc3c(F)cc(F)cc3Cl)nc3cnc(N[C@@H]4CCC[C@@H](O)C4)nc32)CC1` [Example 618, (1S,4s)-4-(8-(2-chloro-4,6-difluorophenylamino)-2-((1R,3R)-3-hydroxycyclohexylamino)-9H-purin-9-yl)-1-methylcyclohexanecarboxamide], 500 to 1000 nM.
Same read-out and setting: the result for `CS(=O)(=O)C1CC(Nc2ncc3nc(Nc4c(Cl)cc(C#N)cc4Cl)n([C@H]4CC[C@@H](C(N)=O)CC4)c3n2)C1` (some centres unmarked) [Example 730, (1s,4s)-4-(8-(2,6-dichloro-4-cyanophenylamino)-2-(3-(methylsulfonyl)cyclobutylamino)-9H-purin-9-yl)cyclohexanecarboxamide] reads over 1000 nM.
Consider `Cc1ccc(S(=O)(=O)N2CCC[C@@H](Nc3ncc4nc(Nc5c(Cl)cc(Cl)cc5Cl)n([C@H]5CC[C@@H](C(N)=O)CC5)c4n3)C2)cc1` [Example 788, (1S,4s)-4-(2-((R)-1-tosylpiperidin-3-ylamino)-8-(2,4,6-trichlorophenylamino)-9H-purin-9-yl)cyclohexanecarboxamide], for which the IC50 was over 1000 nM.
Same read-out and setting: the result for `NC(=O)[C@H]1CC[C@@H](n2c(Nc3c(F)cc(Cl)cc3F)nc3cnc(NC[C@@H]4CCCC[C@@H]4O)nc32)CC1` [Example 657, (1R,4s)-4-(8-(4-chloro-2,6-difluorophenylamino)-2-(((1S,2S)-2-hydroxycyclohexyl)methylamino)-9H-purin-9-yl)cyclohexanecarboxamide] reads over 1000 nM; that for `N#Cc1cc(Cl)c(Nc2nc3cnc(N[C@@H]4CCCN(Cc5ccccc5)C4)nc3n2[C@H]2CC[C@@H](C(N)=O)CC2)c(Cl)c1` [Example 753, (1S,4s)-4-(2-((R)-1-benzylpiperidin-3-ylamino)-8-(2,6-dichloro-4-cyanophenylamino)-9H-purin-9-yl)cyclohexanecarboxamide], over 1000 nM.
